In assay [1] the target is A-Raf kinase (SEQ. ID No: 1) (Homo sapiens (Human), UniProt P10398, Y301D/Y302D). The experiment in a line: Biochemical Assay for A-Raf (1). The settings on record: Table J, assay version (1); read-out: ARAF (1) IC50. The procedure, abridged: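 A-Raf Y301D/Y302D at 5.55 nM phosphorylates 30.1 nM MEK with 1 mM ATP in pH 7.5 Tris buffer, 1% DMSO. Activity was read continuously as NADH oxidation at 340 nm in a pyruvate kinase/lactate dehydrogenase coupled system for 6 h at 30 °C. Rates from 4–5 h were converted to percent inhibition, and IC50 came from a four-parameter fit.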

Assay [2] has as its target B-Raf kinase (SEQ. ID NO: 2) (Homo sapiens (Human), UniProt P15056). In words: Biochemical Assay for B-Raf (1). To be noted: Table J, assay version (1); read-out: BRAF (1) IC50. The procedure, abridged: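 Continuous PK/LDH-coupled NADH oxidation assay, A340 read for 6 h at 30° C., with 0.13 nM B-Raf, 30.1 nM MEK substrate and 1 mM ATP in Tris pH 7.5, MgCl2, DTT, detergents, 1% DMSO. Rate taken from 4–5 h window; percent inhibition vs no-compound and known-inhibitor controls; four-parameter fit gives IC50.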

The test system of the next assay is WM3928 cells. The experiment in a line: WM3928 Cell Proliferation Assay (1). It is filed as cell-based. The procedure, abridged:
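IC50 was derived from resazurin fluorescence (ex 540, em 600 nm) after a 6–7 h dye incubation. Before that, cells had 67–72 h of compound exposure at 37 °C, 5% CO2.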

The next assay deals with Miapaca-2 cells. The experiment in a line: MiaPaca-2 Cell Proliferation Assay (1). It is filed as cell-based. The settings on record: Homo sapiens, MIA PaCa-2, single agent, read-out: MiaPaca2 (1) IC50. The procedure, abridged:
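Resazurin was added after compound exposure and incubated 5-6 h, then fluorescence read at 540 nm excitation and 600 nm emission to give IC50.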

The structures appear in SMILES notation.

B-Raf kinase (SEQ. ID NO: 2), sequence (P15056 416-766): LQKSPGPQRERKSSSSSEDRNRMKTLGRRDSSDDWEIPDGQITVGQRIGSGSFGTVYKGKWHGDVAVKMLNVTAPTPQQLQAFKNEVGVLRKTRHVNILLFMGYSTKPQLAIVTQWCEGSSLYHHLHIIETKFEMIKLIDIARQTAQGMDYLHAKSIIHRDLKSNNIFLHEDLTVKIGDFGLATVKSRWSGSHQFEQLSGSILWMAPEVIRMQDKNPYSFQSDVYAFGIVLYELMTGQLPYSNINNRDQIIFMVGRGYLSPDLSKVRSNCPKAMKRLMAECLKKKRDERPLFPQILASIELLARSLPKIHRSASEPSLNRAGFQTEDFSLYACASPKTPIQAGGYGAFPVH
A-Raf kinase (SEQ. ID No: 1), sequence (P10398 other isoform, or with tags, fused parts or gaps Y301D (already in the parent)/Y302D (already in the parent)): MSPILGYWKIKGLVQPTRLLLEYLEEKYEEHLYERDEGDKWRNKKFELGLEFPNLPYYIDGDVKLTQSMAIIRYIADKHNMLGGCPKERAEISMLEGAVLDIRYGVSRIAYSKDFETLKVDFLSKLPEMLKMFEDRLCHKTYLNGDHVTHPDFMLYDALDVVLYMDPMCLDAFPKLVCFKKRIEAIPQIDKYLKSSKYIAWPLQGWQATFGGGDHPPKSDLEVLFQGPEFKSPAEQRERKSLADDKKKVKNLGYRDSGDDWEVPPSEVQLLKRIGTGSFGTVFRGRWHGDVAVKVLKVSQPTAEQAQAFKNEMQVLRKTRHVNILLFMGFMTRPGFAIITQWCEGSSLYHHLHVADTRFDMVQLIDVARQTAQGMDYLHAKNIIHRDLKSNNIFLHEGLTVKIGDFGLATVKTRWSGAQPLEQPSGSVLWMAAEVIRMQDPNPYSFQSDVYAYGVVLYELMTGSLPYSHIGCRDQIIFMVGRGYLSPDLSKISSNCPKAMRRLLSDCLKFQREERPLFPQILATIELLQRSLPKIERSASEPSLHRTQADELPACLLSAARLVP

For the compound `Cc1cc(F)c(NC(=O)c2ccnc(C(C)(C)C#N)c2)cc1-c1cc(-c2ccnc(NC(=O)C3CC3)c2)cnn1` [Example 298], the IC50 (commonly the concentration that gives 50% inhibition) is 1000 to 10000 nM in assay [1], at most 100 nM in assay [2], 100 to 500 nM in the assay on WM3928 cells and 1000 to 10000 nM in the assay with Miapaca-2 cells.
For `COC(=O)Nc1cc(-c2cnnc(-c3cc(NC(=O)c4ccnc(C(C)(C)C#N)c4)c(F)cc3C)c2)ccn1` [Example 299], the 50% inhibitory concentration (IC50) is 1000 to 10000 nM in assay [1], at most 100 nM in assay [2], 500 to 1000 nM in the assay on WM3928 cells and 1000 to 10000 nM with Miapaca-2 cells.
Regarding `Cc1cc(F)c(NC(=O)c2ccnc(C(C)(C)F)c2)cc1-c1ccnc(-c2ccnc(NC(=O)C3CC3)c2)c1` [Example 300], the concentration for half-maximal inhibition (IC50) in assay [1] is 1000 to 10000 nM; in assay [2] it was at most 100 nM; in the assay on WM3928 cells, at most 100 nM; in the assay on Miapaca-2 cells it was 1000 to 10000 nM.
`Cc1ncc(NC(=O)c2ccnc(C(C)(C)C#N)c2)cc1-c1cccc(-c2ccnc(C(N)=O)c2)c1` [Example 301]: the IC50 in assay [1] is 1000 to 10000 nM; in assay [2], at most 100 nM; with WM3928 cells, 100 to 500 nM; with Miapaca-2 cells, 1000 to 10000 nM.
On to `COC(=O)Nc1cc(-c2nccc(-c3cc(NC(=O)c4ccnc(C(C)(C)F)c4)c(F)cc3C)n2)ccn1` [Example 304], for which the IC50 is 1000 to 10000 nM in assay [1], at most 100 nM in assay [2], at most 100 nM in the assay with WM3928 cells and 1000 to 10000 nM in the assay with Miapaca-2 cells.
For `COC(=O)Nc1cc(-c2cnnc(-c3cc(NC(=O)c4ccnc(C(C)(C)C#N)c4)ccc3C)c2)ccn1` [Example 305], the IC50 in assay [1] is 1000 to 10000 nM; in assay [2], at most 100 nM; in the assay with WM3928 cells, 100 to 500 nM; with Miapaca-2 cells it was 1000 to 10000 nM.
In the case of `Cc1cc(F)c(NC(=O)c2ccnc(C(F)F)c2)cc1-c1ccnc(-c2ccnc(NC(=O)C3CC3)c2)c1` [Example 307], the concentration for half-maximal inhibition (IC50) in assay [1] is 500 to 1000 nM; in assay [2] it was at most 100 nM; in the assay with WM3928 cells it was 100 to 500 nM; with Miapaca-2 cells, 1000 to 10000 nM.
Taken in the same sequence, the figures for `COC(=O)Nc1cc(-c2cc(-c3cc(NC(=O)c4ccnc(C(C)(C)C#N)c4)c(F)cc3C)ccn2)ccn1` [Example 308] were 1000 to 10000 nM, at most 100 nM, at most 100 nM and 1000 to 10000 nM.
On the same counts, the results for `COC(=O)Nc1cc(-c2cc(-c3cc(NC(=O)c4ccnc(C(F)(F)F)c4)cnc3C)ccn2)ccn1` [Example 312] are 1000 to 10000 nM, at most 100 nM, 1000 to 10000 nM and 1000 to 10000 nM.
Taken in the same sequence, the figures for `Cc1ncc(NC(=O)C2CCOC(C)(C)C2)cc1-c1cccc(-c2cc(NC(=O)C3CC3)ncn2)c1` (stereo not shown) [Example 348] were 1000 to 10000 nM, 100 to 500 nM, 1000 to 10000 nM and 1000 to 10000 nM.

Source of the values: patent US12319655B2, “RAF kinase inhibitors and methods of use thereof” (Deciphera Pharmaceuticals, LLC, priority 2021, dated 2025).
